Assay results reported in patent US11559575B2, “Multi-epitopic peptide compounds and vaccines against leishmaniasis” (INSTITUT DE RECHERCHE POUR LE DEVELOPPEMENT, priority 2018, dated 2023).
Entries after “also recorded” stand apart in the source; their conditions may differ.

Legend:
HLA alleles of class I = test: Affinity of epitopes for HLA alleles of class I; type: binding, human; conditions: for Affinity for the HLA alleles of class I: H2B-1 epitopes, Table 1; for Affinity HLA alleles of class I: PSA KC-2.6 core; for Concatenation affinity allele CII: PSA KC-2.6 Peptide CII; for Affinity allele class I: LmLRAB-IIA peptides
From the text: (§1) The multiepitopic peptide compounds (24 to 40-mer), having a high affinity with a maximized number of HLA molecules of class I and of class II, such as the affinities for the alleles HLA of class I and HLA of class II of the epitopes in the peptides of the sequences SEQ ID NO: 22, 23, 65, 66, 69, 73, 77, 96, 97, 137, 138, and 157, 185, have a high immunoprevalent potential corresponding to an optimal vaccine coverage, in particular for the populations concerned. The degree of coverage of the peptide compounds of the invention show a very high added value compared with the peptides of the prior art.

HLA alleles of class II = test: Affinity of epitopes for HLA alleles of class II; type: binding, human; conditions: for Concatenation affinity for the HLA alleles of class II: H2B-II peptides
From the text: as §1

[1] = LmlRAB-IIB Peptide CII, Table 2

Sequence: TMKSMSHRTM (Leishmania major) [SEQ ID NO: 21]
- Affinity for the HLA alleles of class I (HLA alleles of class I): HLA-B*15:01,; also recorded: HLA-B*08:01

Sequence: FLTDEKTSL (listed as Leishmania infantum) [SEQ ID NO: 146]
- Affinity HLA alleles of class I (HLA alleles of class I; Table 3): HLA-A*02:01,; also recorded: HLA-A*02:03,; also recorded: HLA-A*02:06,; also recorded: HLA-B*39:01

Sequence: LFTDVHYSEV (Leishmania major) [SEQ ID NO: 133]
- Concatenation affinity for HLA alleles of class I (HLA alleles of class I; [1]): HLA-A*01:01

Sequence: VQEEVFDLF (Leishmania major) [SEQ ID NO: 126]
- Affinity for HLA alleles of class I (HLA alleles of class I; LmlRAB-IIB core, Table 2): HLA-A*02:06

Sequence: KEMPSGSDY (listed as Leishmania infantum) [SEQ ID NO: 180]
- Concatenation affinity for HLA alleles of class I (HLA alleles of class I; PSA KC-2.7 peptides, Table 3): HLA-B*15:01, HLA-A*30:02,; also recorded: HLA-B*44:02, HLA-B*44:03

Sequence: VHYSEVSAK (Leishmania major) [SEQ ID NO: 136]
- Concatenation affinity for HLA alleles of class I (HLA alleles of class I; [1]): HLA-A*03:01

Sequence: EVFDLFTDV (Leishmania major) [SEQ ID NO: 120]
- Affinity for HLA alleles of class I (HLA alleles of class I; LmlRAB-IIB core, Table 2): HLA-A*02:03,; also recorded: HLA-A*02:06,; also recorded: HLA-A*68:02

Sequence: FDLFTDVHY (Leishmania major) [SEQ ID NO: 130]
- Concatenation affinity for HLA alleles of class I (HLA alleles of class I; [1]): HLA-A*02:01, HLA-B*35:01

Sequence: KAINAQMSM (Leishmania major) [SEQ ID NO: 3]
- Affinity for the HLA alleles of class I (HLA alleles of class I): HLA-B*58:01,; also recorded: HLA-B*57:01,; also recorded: HLA-B*15:01,; also recorded: HLA-A*30:01
- Affinity for the HLA alleles of class II (HLA alleles of class II; H2B-1 epitopes, Table 1): DRB4*01:01

Sequence: SMSHRTMKSM (Leishmania major) [SEQ ID NO: 19]
- Affinity for the HLA alleles of class I (HLA alleles of class I): HLA-B*15:01,; also recorded: HLA-B*57:01,; also recorded: HLA-A*02:03,; also recorded: HLA-B*08:01

Sequence: LTDEKTSLVY (listed as Leishmania infantum) [SEQ ID NO: 154]
- Concatenation affinity allele CII (HLA alleles of class I; Table 3): HLA-A*01:01, HLA-B*15:01

Sequence: HSMIRDLDF (listed as Leishmania infantum) [SEQ ID NO: 173]
- Affinity for HLA alleles of class I (HLA alleles of class I; PSA KC-2.7 core, Table 3): HLA-B*35:01,; also recorded: HLA-B*58:01
- Concatenation affinity for HLA alleles of class II (HLA alleles of class II; PSA KC-2.7 core, Table 3): HLA-DRB4*01:01

Sequence: ENAIVTSRK (Leishmania major) [SEQ ID NO: 129]
- Concatenation affinity for HLA alleles of class I (HLA alleles of class I; [1]): HLA-A*68:01

Sequence: RLHSVVGRH (Leishmania major) [SEQ ID NO: 93]
- Affinity allele class I (HLA alleles of class I; Table 2): HLA-A*03:01, HLA-A*30:02

Sequence: ARSGEGYFL (listed as Leishmania infantum) [SEQ ID NO: 152]
- Concatenation affinity allele CII (HLA alleles of class I; Table 3): HLA-B*39:01

Sequence: DVHYSEVSA (Leishmania major) [SEQ ID NO: 128]
- Concatenation affinity for HLA alleles of class I (HLA alleles of class I; [1]): HLA-A*68*02

Sequence: LTDEKTSLV (listed as Leishmania infantum) [SEQ ID NO: 148]
- Affinity HLA alleles of class I (HLA alleles of class I; Table 3): HLA-A*02:01,; also recorded: HLA-A*02:03,; also recorded: HLA-A*02:06,; also recorded: HLA-A*68:02
- Concatenation affinity for HLA alleles of class II (HLA alleles of class II; PSA KC-2.6 core, Table 3): HLA-DRB1*04:01

Sequence: GSDYSHSMIR (listed as Leishmania infantum) [SEQ ID NO: 179]
- Concatenation affinity for HLA alleles of class I (HLA alleles of class I; PSA KC-2.7 peptides, Table 3): HLA-A*03:01

Sequence: FLTDEKTSLV (listed as Leishmania infantum) [SEQ ID NO: 153]
- Concatenation affinity allele CII (HLA alleles of class I; Table 3): HLA-A*01:01, HLA-A*02:01

Sequence: KGRSENAIV (Leishmania major) [SEQ ID NO: 131]
- Concatenation affinity for HLA alleles of class I (HLA alleles of class I; [1]): HLA-A*30:01

Sequence: VVGRHLSIV (Leishmania major) [SEQ ID NO: 95]
- Affinity allele class I (HLA alleles of class I; Table 2): HLA-A*02:03

Sequence: SMIRDLDFS (listed as Leishmania infantum) [SEQ ID NO: 184]
- Concatenation affinity for HLA alleles of class I (HLA alleles of class I; PSA KC-2.7 peptides, Table 3): HLA-A*02:03, HLA-A*02:06

Sequence: MPSGSDYSH (listed as Leishmania infantum) [SEQ ID NO: 182]
- Concatenation affinity for HLA alleles of class I (HLA alleles of class I; PSA KC-2.7 peptides, Table 3): HLA-B*35:01, HLA-B*53:01

Sequence: ARSARSGEGY (listed as Leishmania infantum) [SEQ ID NO: 151]
- Concatenation affinity allele CII (HLA alleles of class I; Table 3): HLA-B*15:01

Sequence: RSARSGEGY (listed as Leishmania infantum) [SEQ ID NO: 155]
- Concatenation affinity allele CII (HLA alleles of class I; Table 3): HLA-A*30:02, HLA-B*15:01, HLA-B*57:01,; also recorded: HLA-B*58:01

Sequence: KGRLHSVVG (Leishmania major) [SEQ ID NO: 92]
- Affinity allele class I (HLA alleles of class I; Table 2): HLA-A*30:1

Sequence: SVVGRHLSI (Leishmania major) [SEQ ID NO: 94]
- Affinity allele class I (HLA alleles of class I; Table 2): HLA-A*02:03, HLA-A*02:06, HLA-A*32:01,; also recorded: HLA-B*08:01

Sequence: KVQEEVFDL (Leishmania major) [SEQ ID NO: 132]
- Concatenation affinity for HLA alleles of class I (HLA alleles of class I; [1]): HLA-A*02:01, HLA-A*02:06, HLA-A*32:01

Sequence: NMGLLLSGT (listed as Leishmania infantum) [SEQ ID NO: 183]
- Concatenation affinity for HLA alleles of class I (HLA alleles of class I; PSA KC-2.7 peptides, Table 3): HLA-A*02:02

Sequence: SDYSHSMIR (listed as Leishmania infantum) [SEQ ID NO: 177]
- Affinity for HLA alleles of class I (HLA alleles of class I; PSA KC-2.7 core, Table 3): HLA-A*31:01,; also recorded: HLA-A*68:01
- Concatenation affinity for HLA alleles of class II (HLA alleles of class II; PSA KC-2.7 core, Table 3): HLA-DRB1*07:01,; also recorded: HLA-DRB5*01:01

Sequence: IVADHMPHL (Leishmania major) [SEQ ID NO: 89]
- Affinity for HLA alleles of class I (HLA alleles of class I; LmLRAB-IIA core, Table 2): HLA-A*02:01,; also recorded: HLA-A*02:03,; also recorded: HLA-A*02:06
- Concatenation affinity for HLA alleles of class II (HLA alleles of class II; LmLRAB-IIA core, Table 2): HLA-DRB1*03:01,; also recorded: HLA-DRB1*13:02,; also recorded: HLA-DRB3*01:01

Sequence: RSARSGEGYF (listed as Leishmania infantum) [SEQ ID NO: 156]
- Concatenation affinity allele CII (HLA alleles of class I; Table 3): HLA-B*15:01, HLA-B*58:01

Sequence: TSRKDQEEV [SEQ ID NO: 135]
- Concatenation affinity for HLA alleles of class I (HLA alleles of class I; [1]): HLA-B*15:01, HLA-A*30:01, HLA-A*68:02

Sequence: FTDVHYSEV (Leishmania major) [SEQ ID NO: 121]
- Affinity for HLA alleles of class I (HLA alleles of class I; LmlRAB-IIB core, Table 2): HLA-A*02:01,; also recorded: HLA-A*02:03,; also recorded: HLA-A*02:06,; also recorded: HLA-A*35:01,; also recorded: HLA-A*68:02
- Concatenation affinity for HLA alleles of class II (HLA alleles of class II; LmlRAB-IIB core, Table 2): HLA-DRB1*07:01,; also recorded: HLA-DRB1*09:01,; also recorded: HLA-DRPA*01:03/; also recorded: DPB1*04:01,; also recorded: HLA-DPA1*01:03/; also recorded: DPB1*02:01

Sequence: MIRDLDFSNM (listed as Leishmania infantum) [SEQ ID NO: 181]
- Concatenation affinity for HLA alleles of class I (HLA alleles of class I; PSA KC-2.7 peptides, Table 3): HLA-B*15:01

Sequence: SENAIVTSR (Leishmania major) [SEQ ID NO: 134]
- Concatenation affinity for HLA alleles of class I (HLA alleles of class I; [1]): HLA-A*31:01, HLA-B*44:03, HLA-A*68:01

Sequence: SWNVYVGRSLKAINA (Leishmania major) [SEQ ID NO: 29]
- Concatenation affinity for the HLA alleles of class II (HLA alleles of class II; Table 1): HLA-DRB5*01:01, HLA-DRB1*04:05, HLA-DPA1*03:01/; also recorded: DPB1*04:02, HLA-DRB1*01:01, HLA-DRB1*03:01,; also recorded: HLA-DRB1*04:01, HLA-DRB1*11:01, HLA-DRB1*13:02,; also recorded: HLA-DRB1*07:01, HLA-DRB1*09:01, HLA-DRB1*15:01,; also recorded: HLA-DPA1*02:01/DPB1*01:01, HLA-DRB1*08:02

Sequence: VQEEVFDLFTDVHYS (Leishmania major) [SEQ ID NO: 117]
- Concatenation affinity for HLA alleles of class II (HLA alleles of class II; LmlRAB-IIB peptides, Table 2): HLA-DRB1*03:01, HLA-DRB1*04:01,; also recorded: HLA-DRB1*04:05, HLA-DRB1*07:01,; also recorded: HLA-DRB1*15:01, HLA-DPA1*01:03/DPB1*02:01,; also recorded: HLA-DPA1*02:01/DPB1*05:01,; also recorded: HLA-DPA1*03:01/DPB1*04:02

Sequence: YVGRSLKAINAQMSM (Leishmania major) [SEQ ID NO: 33]
- Concatenation affinity for the HLA alleles of class II (HLA alleles of class II; Table 1): HLA-DRB1*04:01, HLA-DRB1*11:01, HLA-DRB1*08:02,; also recorded: HLA-DRB1*01:01, HLA-DRB1*04:05, HLA-DRB1*07:01,; also recorded: HLA-DRB1*09:01, HLA-DRB4*01:01, HLA-DRB5*01:01,
